From patent US5654420A, “Process for preparing 2'-cyano pyrimidine nucleoside compounds” (Sankyo Company, Limited, priority 1990, dated 1997) come the findings set out here.

In brackets after ≈: the same amount, converted by molar mass. Structures can show the parent of a compound that is named as a salt.

In the experiment the test system is KB human oral epidermoid carcinoma. The experiment in a line: Antitumor activity in vitro (MTT method, 72 h), KB. It is filed as cell-based. The note with it: 37° C., read-out: IC50 (concentration necessary for inhibiting proliferation of the cells to 50%). How it is done:
Antitumor activity was determined in vitro using a human cancer strain. As the culture medium for the cancer cell, an RPMI1640 solution containing 10% of […] bovine fetal serum 50 μg/ml of kanamycin was used. Cancer cells (1×10^4 cells/ml) were innoculated to 1 ml of the culture liquids containing samples at different concentrations, respectively, and cultured in a carbon dioxide gas incubator at 37° C. for 72 hours.
Viability of the cancer cells was determined by MTT method in which the amount of living cells in the culture liquids containing the sample and that in culture liquids containing no sample (blank group) are measured based on the intensity of the visible light using [3-(4,5-dimethylthiazol-2-yl)-2,5-diphenyl-tetrazolium bromide] which develops color in proportion to the number of living cells. The intensity of antitumor activity was expressed by IC50 value (concentration (μg/ml) necessary for inhibiting proliferation of the cells to 50%). The IC50 value was obtained from a graph illustrating the relationship between % proliferation of the cancer cells in the sample containing group (% relative to the blank group) and the concentration (logalithmic) of the sample.
KB: human oral epidermoid carcinoma
(Formazan colour is commonly taken as a measure of viable cells.)

Regarding `Cc1cn([C@@H]2O[C@H](CO)C=C2C#N)c(=O)[nH]c1=O` [Example 12, 1-(2'-Cyano-2',3'-deoxy-2',3'-didehydro-β-D-ribofuranosyl)thymine], the IC50 amounted to 7.6 µg/mL (≈ 30.5 µM).
For `N#C[C@H]1[C@H](O)[C@@H](CO)O[C@H]1n1ccc(N)nc1=O` [Example 9, 1-(2'-Cyano-2'-deoxy-β-D-arabinofuranosyl)cytosine monohydrochloride] the value was 15 µg/mL.
